Results reported in ChEMBL document CHEMBL3044623, “Feeding cessation effects of chlorantraniliprole, a new anthranilic diamide insecticide, in comparison with several insecticides in distinct chemical classes and mode-of-action groups” (2009).

Experiments:
Trichoplusia ni [1] = assay: Antifeedant activity against third-instar larval stage of Trichoplusia ni (cabbage looper) infested compound-treated leaf assessed as reduction in feeding damage at 244 mg a.i/L after 48 hr by leaf disk assay relative to untreated control; assay type: functional; parameters: scale not given: the % may be the effect or the level left
Plutella xylostella [2] = assay: Antifeedant activity against third-instar larval stage of Plutella xylostella (diamondback moth) infested compound-treated leaf assessed as reduction in feeding damage at 244 mg a.i/L after 48 hr by leaf disk assay relative to untreated control; assay type: functional; parameters: scale not given: the % may be the effect or the level left
Plutella xylostella [3] = assay: Antifeedant activity against third-instar larval stage of Plutella xylostella (diamondback moth) infested compound-treated leaf assessed as time required to stop feeding at 244 mg a.i/L after 48 hr by leaf disk assay (reference value: > 2880 min); assay type: functional
Trichoplusia ni [4] = assay: Antifeedant activity against third-instar larval stage of Trichoplusia ni (cabbage looper) infested compound-treated leaf assessed as time required to stop feeding at 244 mg a.i/L after 48 hr by leaf disk assay (reference value: > 2880 min); assay type: functional
Spodoptera exigua [5] = assay: Antifeedant activity against third-instar larval stage of Spodoptera exigua infested compound-treated leaf assessed as time required to stop feeding at 244 mg a.i/L after 48 hr by leaf disk assay (reference value: > 2880 min); assay type: functional
Spodoptera exigua [6] = assay: Antifeedant activity against third-instar larval stage of Spodoptera exigua infested compound-treated leaf assessed as reduction in feeding damage at 244 mg a.i/L after 48 hr by leaf disk assay relative to untreated control; assay type: functional; parameters: scale not given: the % may be the effect or the level left
Helicoverpa zea [7] = assay: Antifeedant activity against third-instar larval stage of Helicoverpa zea (corn earworm) infested compound-treated leaf assessed as reduction in feeding damage at 244 mg a.i/L after 48 hr by leaf disk assay relative to untreated control; assay type: functional; parameters: scale not given: the % may be the effect or the level left
Helicoverpa zea [8] = assay: Antifeedant activity against third-instar larval stage of Helicoverpa zea (corn earworm) infested compound-treated leaf assessed as time required to stop feeding at 244 mg a.i/L after 48 hr by leaf disk assay (reference value: > 2880 min); assay type: functional
Trichoplusia ni [9] = assay: Antifeedant activity against third-instar larval stage of Trichoplusia ni (cabbage looper) infested compound-treated leaf assessed as reduction in feeding damage at 467 mg a.i/L after 48 hr by leaf disk assay relative to untreated control; assay type: functional; parameters: scale not given: the % may be the effect or the level left
Plutella xylostella [10] = assay: Antifeedant activity against third-instar larval stage of Plutella xylostella (diamondback moth) infested compound-treated leaf assessed as reduction in feeding damage at 467 mg a.i/L after 48 hr by leaf disk assay relative to untreated control; assay type: functional; parameters: scale not given: the % may be the effect or the level left
Plutella xylostella [11] = assay: Antifeedant activity against third-instar larval stage of Plutella xylostella (diamondback moth) infested compound-treated leaf assessed as time required to stop feeding at 467 mg a.i/L after 48 hr by leaf disk assay (reference value: > 2880 min); assay type: functional
Helicoverpa zea [12] = assay: Antifeedant activity against third-instar larval stage of Helicoverpa zea (corn earworm) infested compound-treated leaf assessed as reduction in feeding damage at 467 mg a.i/L after 48 hr by leaf disk assay relative to untreated control; assay type: functional; parameters: scale not given: the % may be the effect or the level left
Spodoptera exigua [13] = assay: Antifeedant activity against third-instar larval stage of Spodoptera exigua infested compound-treated leaf assessed as time required to stop feeding at 467 mg a.i/L after 48 hr by leaf disk assay (reference value: > 2880 min); assay type: functional
Spodoptera exigua [14] = assay: Antifeedant activity against third-instar larval stage of Spodoptera exigua infested compound-treated leaf assessed as reduction in feeding damage at 467 mg a.i/L after 48 hr by leaf disk assay relative to untreated control; assay type: functional; parameters: scale not given: the % may be the effect or the level left
Trichoplusia ni [15] = assay: Antifeedant activity against third-instar larval stage of Trichoplusia ni (cabbage looper) infested compound-treated leaf assessed as time required to stop feeding at 467 mg a.i/L after 48 hr by leaf disk assay (reference value: > 2880 min); assay type: functional
Helicoverpa zea [16] = assay: Antifeedant activity against third-instar larval stage of Helicoverpa zea (corn earworm) infested compound-treated leaf assessed as time required to stop feeding at 467 mg a.i/L after 48 hr by leaf disk assay (reference value: > 2880 min); assay type: functional
Plutella xylostella [17] = assay: Antifeedant activity against third-instar larval stage of Plutella xylostella (diamondback moth) infested compound-treated leaf assessed as reduction in feeding damage at 124 mg a.i/L after 48 hr by leaf disk assay relative to untreated control; assay type: functional; parameters: scale not given: the % may be the effect or the level left
Plutella xylostella [18] = assay: Antifeedant activity against third-instar larval stage of Plutella xylostella (diamondback moth) infested compound-treated leaf assessed as time required to stop feeding at 124 mg a.i/L after 48 hr by leaf disk assay (reference value: > 2880 min); assay type: functional
Trichoplusia ni [19] = assay: Antifeedant activity against third-instar larval stage of Trichoplusia ni (cabbage looper) infested compound-treated leaf assessed as time required to stop feeding at 124 mg a.i/L after 48 hr by leaf disk assay (reference value: > 2880 min); assay type: functional
Spodoptera exigua [20] = assay: Antifeedant activity against third-instar larval stage of Spodoptera exigua infested compound-treated leaf assessed as time required to stop feeding at 124 mg a.i/L after 48 hr by leaf disk assay (reference value: > 2880 min); assay type: functional
Spodoptera exigua [21] = assay: Antifeedant activity against third-instar larval stage of Spodoptera exigua infested compound-treated leaf assessed as reduction in feeding damage at 124 mg a.i/L after 48 hr by leaf disk assay relative to untreated control; assay type: functional; parameters: scale not given: the % may be the effect or the level left
Helicoverpa zea [22] = assay: Antifeedant activity against third-instar larval stage of Helicoverpa zea (corn earworm) infested compound-treated leaf assessed as reduction in feeding damage at 124 mg a.i/L after 48 hr by leaf disk assay relative to untreated control; assay type: functional; parameters: scale not given: the % may be the effect or the level left
Trichoplusia ni [23] = assay: Antifeedant activity against third-instar larval stage of Trichoplusia ni (cabbage looper) infested compound-treated leaf assessed as reduction in feeding damage at 124 mg a.i/L after 48 hr by leaf disk assay relative to untreated control; assay type: functional; parameters: scale not given: the % may be the effect or the level left
Helicoverpa zea [24] = assay: Antifeedant activity against third-instar larval stage of Helicoverpa zea (corn earworm) infested compound-treated leaf assessed as time required to stop feeding at 124 mg a.i/L after 48 hr by leaf disk assay (reference value: > 2880 min); assay type: functional
Plutella xylostella [25] = assay: Antifeedant activity against third-instar larval stage of Plutella xylostella (diamondback moth) infested compound-treated leaf assessed as reduction in feeding damage at 936 mg a.i/L after 48 hr by leaf disk assay relative to untreated control; assay type: functional, organism-based; parameters: scale not given: the % may be the effect or the level left
Plutella xylostella [26] = assay: Antifeedant activity against third-instar larval stage of Plutella xylostella (diamondback moth) infested compound-treated leaf assessed as time required to stop feeding at 936 mg a.i/L after 48 hr by leaf disk assay (reference value: > 2880 min); assay type: functional, organism-based
Trichoplusia ni [27] = assay: Antifeedant activity against third-instar larval stage of Trichoplusia ni (cabbage looper) infested compound-treated leaf assessed as reduction in feeding damage at 936 mg a.i/L after 48 hr by leaf disk assay relative to untreated control; assay type: functional, organism-based; parameters: scale not given: the % may be the effect or the level left
Helicoverpa zea [28] = assay: Antifeedant activity against third-instar larval stage of Helicoverpa zea (corn earworm) infested compound-treated leaf assessed as reduction in feeding damage at 936 mg a.i/L after 48 hr by leaf disk assay relative to untreated control; assay type: functional, organism-based; parameters: scale not given: the % may be the effect or the level left
Spodoptera exigua [29] = assay: Antifeedant activity against third-instar larval stage of Spodoptera exigua infested compound-treated leaf assessed as time required to stop feeding at 936 mg a.i/L after 48 hr by leaf disk assay (reference value: > 2880 min); assay type: functional, organism-based
Spodoptera exigua [30] = assay: Antifeedant activity against third-instar larval stage of Spodoptera exigua infested compound-treated leaf assessed as reduction in feeding damage at 936 mg a.i/L after 48 hr by leaf disk assay relative to untreated control; assay type: functional, organism-based; parameters: scale not given: the % may be the effect or the level left
Trichoplusia ni [31] = assay: Antifeedant activity against third-instar larval stage of Trichoplusia ni (cabbage looper) infested compound-treated leaf assessed as time required to stop feeding at 936 mg a.i/L after 48 hr by leaf disk assay (reference value: > 2880 min); assay type: functional, organism-based
Helicoverpa zea [32] = assay: Antifeedant activity against third-instar larval stage of Helicoverpa zea (corn earworm) infested compound-treated leaf assessed as time required to stop feeding at 936 mg a.i/L after 48 hr by leaf disk assay (reference value: > 2880 min); assay type: functional, organism-based

**Q.** How did the Activity (Trichoplusia ni [1]) turn out when COC(=O)N(C(=O)N1CO[C@@]2(C(=O)OC)Cc3cc(Cl)ccc3C2=N1)c1ccc(OC(F)(F)F)cc1 [INDOXACARB] was run?
**A.** 94.8%

**Q.** What about the Activity (Plutella xylostella [2]) of the same compound?
**A.** 96.6%

**Q.** What about the Time (Plutella xylostella [3]) of the same compound?
**A.** 151.6 min

**Q.** And the Time (Trichoplusia ni [4])?
**A.** 83.6 min

**Q.** And the Time (Spodoptera exigua [5])?
**A.** 54.2 min

**Q.** And the Activity (Spodoptera exigua [6])?
**A.** 95.4%

**Q.** And the Activity (Helicoverpa zea [7])?
**A.** 93.4%

**Q.** What about the Time (Helicoverpa zea [8]) of the same compound?
**A.** 77.2 min

**Q.** What does the source list for COc1cccc(C(=O)NN(C(=O)c2cc(C)cc(C)c2)C(C)(C)C)c1C [METHOXYFENOZIDE]?
**A.** Activity (Trichoplusia ni [9]): 81.6%; Activity (Plutella xylostella [10]): 96%; Time (Plutella xylostella [11]): 514.5 min; Activity (Helicoverpa zea [12]): 93.3%; Time (Spodoptera exigua [13]): 281.1 min; Activity (Spodoptera exigua [14]): 72.9%; Time (Trichoplusia ni [15]): 408.8 min; Time (Helicoverpa zea [16]): 471.8 min

**Q.** For CC1(C)[C@H](/C=C(\Cl)C(F)(F)F)[C@@H]1C(=O)O[C@@H](C#N)c1cccc(Oc2ccccc2)c1 [REL-LAMBDA CYHALOTHRIN], which Activity (Plutella xylostella [17]) is on record?
**A.** 99.6%

**Q.** What about the Time (Plutella xylostella [18]) of the same compound?
**A.** 8.1 min

**Q.** What about the Time (Trichoplusia ni [19]) of the same compound?
**A.** 9.3 min

**Q.** And the Time (Spodoptera exigua [20])?
**A.** 5.4 min

**Q.** What about the Activity (Spodoptera exigua [21]) of the same compound?
**A.** 99.5%

**Q.** And the Activity (Helicoverpa zea [22])?
**A.** 99.9%

**Q.** What about the Activity (Trichoplusia ni [23]) of the same compound?
**A.** 99.9%

**Q.** What about the Time (Helicoverpa zea [24]) of the same compound?
**A.** 7.3 min

**Q.** METAFLUMIZONE was tested. Which Activity (Plutella xylostella [25]) did it give?
**A.** 89.6%

**Q.** What about the TIME (Plutella xylostella [26]) of the same compound?
**A.** 6.04 h

**Q.** And the Activity (Trichoplusia ni [27])?
**A.** 87.6%

**Q.** What about the Activity (Helicoverpa zea [28]) of the same compound?
**A.** 57.9%

**Q.** And the TIME (Spodoptera exigua [29])?
**A.** 7.96 h

**Q.** And the Activity (Spodoptera exigua [30])?
**A.** 47.4%

**Q.** What about the TIME (Trichoplusia ni [31]) of the same compound?
**A.** 4.23 h

**Q.** What about the TIME (Helicoverpa zea [32]) of the same compound?
**A.** 10.3 h
